Results published in US7223837B2, “Elongated and multiple spacers in activatible prodrugs” (Syntarga B.V., priority 2001, dated 2007).
In brackets after ≈: the same amount, converted by molar mass.

Columns and labels:
[1] = test system: M19; experiment: Anti-proliferative effect, SRB test; format: cell-based, human; details: M19 melanoma, 5 days of incubation
Method: (§1) The anti-proliferative effect of prodrugs and parent drugs was determined in vitro applying seven well-characterised human tumor cell lines and the microculture sulphorhodamine B (SRB) test. The anti-proliferative effects were determined and expressed as IC50 values, that are the (pro)drug concentrations that gave 50% inhibition when compared to control cell growth after 5 days of incubation.

[2] = test system: A498; experiment: Anti-proliferative effect, SRB test; format: cell-based, human; details: A498 renal cancer, 5 days of incubation
Method: as §1

[3] = test system: H226; experiment: Anti-proliferative effect, SRB test; format: cell-based, human; details: H226 non-small cell lung cancer, 5 days of incubation
Method: as §1

[4] = test system: IGROV; experiment: Anti-proliferative effect, SRB test; format: cell-based, human; details: IGROV ovarian cancer, 5 days of incubation
Method: as §1

[5] = test system: WIDR; experiment: Anti-proliferative effect, SRB test; format: cell-based, human; details: WIDR colon cancer, 5 days of incubation
Method: as §1

[6] = test system: MCF-7; experiment: Anti-proliferative effect, SRB test; format: cell-based, human; details: MCF-7 breast cancer, 5 days of incubation
Method: as §1

[7] = test system: EVSA-T; experiment: Anti-proliferative effect, SRB test; format: cell-based, human; details: EVSA-T breast cancer, 5 days of incubation
Method: as §1

[8] = Stability of prodrugs in 0.1 M Tris/HCl buffer (pH 7.3); details: TLC
[9] = absence of zinc powder, methanol/acetic acid, same conditions
Method: 36 mg of 2′-[nitrocinnamyl carbonate]-paclitaxel 1 was dissolved in 8 ml methanol and 2 ml acetic acid. A catalytic amount of zinc powder was added and the red mixture was stirred for 12 h. Dichloromethane was added and the organic layer was washed with saturated sodium bicarbonate, 0.5 N potassium bisulfate, brine, and water and dried over anhydrous sodium sulfate.

[10] = 150 μM in 0.1 M Tris/HCl buffer (pH 7.3), 3 days

Compound	ID50 [1]	ID50 [2]	ID50 [3]	ID50 [4]	ID50 [5]	ID50 [6]	ID50 [7]	formation of degradation products [8, 10]	paclitaxel release without reduction [9]	formation of degradation products ([8]; 100–270 μM in 0.1 M Tris/HCl buffer (pH 7.3), 90 hours)
CC(=O)O[C@H]1C(=O)[C@@]2(C)[C@H]([C@H](OC(=O)c3ccccc3)[C@]3(O)C[C@H](OC(=O)[C@H](O)[C@@H](NC(=O)c4ccccc4)c4ccccc4)C(C)=C1C3(C)C)[C@]1(OC(C)=O)CO[C@@H]1C[C@@H]2O [Paclitaxel, paclitaxel, reference compound]	<0.003 µg/mL	<0.003 µg/mL	<0.003 µg/mL	0.01 µg/mL (≈ 0.0117 µM)	<0.003 µg/mL	<0.003 µg/mL	<0.003 µg/mL	–	–	–
2′-[H-D-Ala-Phe-Lys-PABC-N(Me)—(CH2)2—N(Me)CO]-paclitaxel (.2HCl) [Prodrug 43]	0.096 µg/mL	0.681 µg/mL	0.062 µg/mL	0.499 µg/mL	0.117 µg/mL	0.06 µg/mL	0.119 µg/mL	no formation of degradation products	–	–
CC(=O)OC1C(=O)C2(C)C(O)CC3OCC3(OC(C)=O)C2C(OC(=O)c2ccccc2)C2(O)CC(OC(=O)C(OC(=O)OCc3ccc(NC(=O)OCc4ccc(NC(=O)C(CCCCN)NC(=O)C(Cc5ccccc5)NC(=O)C(C)N)cc4)cc3)C(NC(=O)c3ccccc3)c3ccccc3)C(C)=C1C2(C)C.Cl.Cl [Prodrug 22, 2′-[H-D-Ala-Phe-Lys-PABC-PABC]-paclitaxel (.2HCl)]	0.007 µg/mL	0.025 µg/mL	0.007 µg/mL	0.022 µg/mL	0.005 µg/mL	0.011 µg/mL	0.005 µg/mL	no formation of degradation products	–	–
CC(=O)OC1C(=O)C2(C)C(O)CC3OCC3(OC(C)=O)C2C(OC(=O)c2ccccc2)C2(O)CC(OC(=O)C(OC(=O)OCC=Cc3ccc([N+](=O)[O-])cc3)C(NC(=O)c3ccccc3)c3ccccc3)C(C)=C1C2(C)C (stereo not drawn) [Prodrug 1, 2′-[4-nitrocinnamyl carbonate]-paclitaxel]	–	–	–	–	–	–	–	–	no paclitaxel was formed	–
COc1cccc2c1C(=O)c1c(O)c3c(c(O)c1C2=O)C[C@@](O)(C(=O)CO)C[C@@H]3O[C@H]1C[C@H](N)[C@H](O)[C@H](C)O1 [Doxorubicin, doxorubicin, reference compound]	0.016 µg/mL (≈ 0.0294 µM)	0.09 µg/mL (≈ 0.166 µM)	0.199 µg/mL (≈ 0.366 µM)	0.06 µg/mL (≈ 0.11 µM)	0.011 µg/mL (≈ 0.0202 µM)	0.01 µg/mL (≈ 0.0184 µM)	0.008 µg/mL (≈ 0.0147 µM)	–	–	–
H-D-Ala-Phe-Lys-PABC-PABC-DOX.5.7HCl [Prodrug 20]	0.302 µg/mL	2.303 µg/mL	0.503 µg/mL	0.896 µg/mL	0.627 µg/mL	0.242 µg/mL	0.546 µg/mL	–	–	no formation of degradation products
